Data as given in US20170051149A1, “AZOARYLS AS REVERSIBLY MODULATABLE TUBULIN INHIBITORS” (ECOLE NORMALE SUPERIEURE DE LYON, priority 2014, published 2017).

Tested on: tubulin
Assay: turbidimetric tubulin polymerisation assay with irradiation
Format: biochemical
Settings: for tubulin polymerisation inhibition: 50 and 25 μM
Experimental: Turbidimetric tubulin polymerisation assays were performed as described in the literature^[29], following the increase in absorbance at 340 nm, but with the addition of irradiation supplied by the monochromator setup described in Part B. Two wavelengths were chosen for each compound, λE->Z (chosen to effect bulk trans->cis isomerisation, typically 390 nm), and λZ->E (chosen to effect bulk cis->trans isomerisation, typically 505 nm). The raw absorbance A(t) could be more clearly discussed by first correcting for any change in azoaryl absorbance over time by subtracting the absorbance of a control run performed without tubulin, yielding the corrected absorbance A*(t), and then taking its derivative R=dA*(t)/dt. Experiments were performed under six sets of conditions to illustrate the light control of tubulin polymerisation inhibition effected by the compounds of the invention: (a) in the dark (typical result: large R at the start decreasing rapidly over time), or (b) with constant irradiation at λE->Z (typical result: small R throughout the experiment), or (c) with constant irradiation at λZ->E (typical result: moderate R at the start decreasing slowly over time), or (d) with irradiation at λE->Z for an initial period then darkness (typical result: initial period with small R, then R increases after a while), or (e) with irradiation at λE->Z for a given period (typically 30 min) then irradiation at λZ->E (typical result: 30 minutes with small R, then R increases quickly to a moderate value which decreases slowly over time), or (f) with irradiation at λE->Z for a given period (usually 30 min) then a short irradiation at λZ->E (usually 30 seconds) then darkness (typical result: 30 minutes with small R, then R increases quickly to a moderate-to-large value which decreases slowly over time); the last three conditions required correction of A(t) to A*(t) to reveal the changes in absorption which were due only to tubulin polymerisation. It would be costly to determine light-dependent in vitro tubulin polymerisation IC50 values for each compound, eg. under protocols (a) and (b) (and/or (c)). This was not performed here since it was considered that such parameters have little predictive value in their intended complex biological settings, especially in light of the importance of biodistribution, tubulin-binding kinetics and lability (rather than thermodynamic binding strength) for tubulin disruption in biological settings.
Table 3 below illustrates typical results from experiments of type (a) (“DARK”) and (b) (“390 nm”) as described above, with compound (I.1) at concentrations well above the IC50 for the toxic regime, compared to a PBS-only control CTRL (no I.1 present).

COc1ccc(N=Nc2cc(OC)c(OC)c(OC)c2)cc1O [I.1, 2-methoxy-5-((3,4,5-trimethoxyphenyl)diazenyl)phenol]
A(λ = 340 nm) (25 μM, 390 nm, 0.0 min): 0.0000 | A(λ = 340 nm) (25 μM, 390 nm, 0.5 min): −0.0026 | A(λ = 340 nm) (25 μM, 390 nm, 1.0 min): −0.0022 | A(λ = 340 nm) (25 μM, 390 nm, 1.5 min): −0.0022 | A(λ = 340 nm) (25 μM, 390 nm, 2.0 min): −0.0010 | A(λ = 340 nm) (25 μM, 390 nm, 3.0 min): 0.0004 | A(λ = 340 nm) (25 μM, 390 nm, 3.5 min): 0.0029 | A(λ = 340 nm) (25 μM, 390 nm, 4.0 min): 0.0027 | A(λ = 340 nm) (25 μM, 390 nm, 4.5 min): 0.0034 | A(λ = 340 nm) (25 μM, 390 nm, 5.0 min): 0.0100 | A(λ = 340 nm) (25 μM, 390 nm, 5.5 min): 0.0094 | A(λ = 340 nm) (25 μM, 390 nm, 6.0 min): 0.0132 | A(λ = 340 nm) (25 μM, 390 nm, 6.5 min): 0.0174 | A(λ = 340 nm) (25 μM, 390 nm, 7.0 min): 0.0171 | A(λ = 340 nm) (25 μM, 390 nm, 7.5 min): 0.0222 | A(λ = 340 nm) (25 μM, 390 nm, 8.0 min): 0.0241 | A(λ = 340 nm) (25 μM, 390 nm, 8.5 min): 0.0259 | A(λ = 340 nm) (25 μM, 390 nm, 9.0 min): 0.0288 | A(λ = 340 nm) (25 μM, 390 nm, 9.5 min): 0.0313 | A(λ = 340 nm) (25 μM, 390 nm, 10.0 min): 0.0341 | A(λ = 340 nm) (25 μM, 390 nm, 10.5 min): 0.0358 | A(λ = 340 nm) (25 μM, 390 nm, 11.0 min): 0.0402 | A(λ = 340 nm) (25 μM, 390 nm, 11.5 min): 0.0413 | A(λ = 340 nm) (25 μM, 390 nm, 12.0 min): 0.0443 | A(λ = 340 nm) (25 μM, 390 nm, […]): −0.0001 | A(λ = 340 nm) (25 μM, DARK, 0.0 min): 0.0000 | A(λ = 340 nm) (25 μM, DARK, 0.5 min): 0.0001 | A(λ = 340 nm) (25 μM, DARK, 1.0 min): −0.0016 | A(λ = 340 nm) (25 μM, DARK, 1.5 min): 0.0018 | A(λ = 340 nm) (25 μM, DARK, 2.0 min): 0.0119 | A(λ = 340 nm) (25 μM, DARK, 3.0 min): 0.0492 | A(λ = 340 nm) (25 μM, DARK, 3.5 min): 0.0689 | A(λ = 340 nm) (25 μM, DARK, 4.0 min): 0.0851 | A(λ = 340 nm) (25 μM, DARK, 4.5 min): 0.0984 | A(λ = 340 nm) (25 μM, DARK, 5.0 min): 0.1073 | A(λ = 340 nm) (25 μM, DARK, 5.5 min): 0.1133 | A(λ = 340 nm) (25 μM, DARK, 6.0 min): 0.1150 | A(λ = 340 nm) (25 μM, DARK, 6.5 min): 0.1212 | A(λ = 340 nm) (25 μM, DARK, 7.0 min): 0.1249 | A(λ = 340 nm) (25 μM, DARK, 7.5 min): 0.1228 | A(λ = 340 nm) (25 μM, DARK, 8.0 min): 0.1250 | A(λ = 340 nm) (25 μM, DARK, 8.5 min): 0.1259 | A(λ = 340 nm) (25 μM, DARK, 9.0 min): 0.1240 | A(λ = 340 nm) (25 μM, DARK, 9.5 min): 0.1276 | A(λ = 340 nm) (25 μM, DARK, 10.0 min): 0.1276 | A(λ = 340 nm) (25 μM, DARK, 10.5 min): 0.1255 | A(λ = 340 nm) (25 μM, DARK, 11.0 min): 0.1290 | A(λ = 340 nm) (25 μM, DARK, 11.5 min): 0.1299 | A(λ = 340 nm) (25 μM, DARK, 12.0 min): 0.1333 | A(λ = 340 nm) (25 μM, DARK, […]): 0.0274 | A(λ = 340 nm) (50 μM, 390 nm, 0.0 min): 0.0000 | A(λ = 340 nm) (50 μM, 390 nm, 0.5 min): 0.0014 | A(λ = 340 nm) (50 μM, 390 nm, 1.0 min): 0.0020 | A(λ = 340 nm) (50 μM, 390 nm, 1.5 min): 0.0033 | A(λ = 340 nm) (50 μM, 390 nm, 2.0 min): 0.0027 | A(λ = 340 nm) (50 μM, 390 nm, 3.0 min): 0.0066 | A(λ = 340 nm) (50 μM, 390 nm, 3.5 min): 0.0074 | A(λ = 340 nm) (50 μM, 390 nm, 4.0 min): 0.0100 | A(λ = 340 nm) (50 μM, 390 nm, 4.5 min): 0.0084 | A(λ = 340 nm) (50 μM, 390 nm, 5.0 min): 0.0122 | A(λ = 340 nm) (50 μM, 390 nm, 5.5 min): 0.0166 | A(λ = 340 nm) (50 μM, 390 nm, 6.0 min): 0.0163 | A(λ = 340 nm) (50 μM, 390 nm, 6.5 min): 0.0172 | A(λ = 340 nm) (50 μM, 390 nm, 7.0 min): 0.0213 | A(λ = 340 nm) (50 μM, 390 nm, 7.5 min): 0.0209 | A(λ = 340 nm) (50 μM, 390 nm, 8.0 min): 0.0221 | A(λ = 340 nm) (50 μM, 390 nm, 8.5 min): 0.0268 | A(λ = 340 nm) (50 μM, 390 nm, 9.0 min): 0.0268 | A(λ = 340 nm) (50 μM, 390 nm, 9.5 min): 0.0293 | A(λ = 340 nm) (50 μM, 390 nm, 10.0 min): 0.0320 | A(λ = 340 nm) (50 μM, 390 nm, 10.5 min): 0.0318 | A(λ = 340 nm) (50 μM, 390 nm, 11.0 min): 0.0327 | A(λ = 340 nm) (50 μM, 390 nm, 11.5 min): 0.0333 | A(λ = 340 nm) (50 μM, 390 nm, 12.0 min): 0.0359 | A(λ = 340 nm) (50 μM, 390 nm, […]): 0.0052 | A(λ = 340 nm) (50 μM, DARK, 0.0 min): 0.0000 | A(λ = 340 nm) (50 μM, DARK, 0.5 min): 0.0010 | A(λ = 340 nm) (50 μM, DARK, 1.0 min): 0.0014 | A(λ = 340 nm) (50 μM, DARK, 1.5 min): 0.0034 | A(λ = 340 nm) (50 μM, DARK, 2.0 min): 0.0128 | A(λ = 340 nm) (50 μM, DARK, 3.0 min): 0.0552 | A(λ = 340 nm) (50 μM, DARK, 3.5 min): 0.0734 | A(λ = 340 nm) (50 μM, DARK, 4.0 min): 0.0926 | A(λ = 340 nm) (50 μM, DARK, 4.5 min): 0.1046 | A(λ = 340 nm) (50 μM, DARK, 5.0 min): 0.1139 | A(λ = 340 nm) (50 μM, DARK, 5.5 min): 0.1209 | A(λ = 340 nm) (50 μM, DARK, 6.0 min): 0.1269 | A(λ = 340 nm) (50 μM, DARK, 6.5 min): 0.1284 | A(λ = 340 nm) (50 μM, DARK, 7.0 min): 0.1262 | A(λ = 340 nm) (50 μM, DARK, 7.5 min): 0.1379 | A(λ = 340 nm) (50 μM, DARK, 8.0 min): 0.1338 | A(λ = 340 nm) (50 μM, DARK, 8.5 min): 0.1359 | A(λ = 340 nm) (50 μM, DARK, 9.0 min): 0.1367 | A(λ = 340 nm) (50 μM, DARK, 9.5 min): 0.1374 | A(λ = 340 nm) (50 μM, DARK, 10.0 min): 0.1397 | A(λ = 340 nm) (50 μM, DARK, 10.5 min): 0.1370 | A(λ = 340 nm) (50 μM, DARK, 11.0 min): 0.1405 | A(λ = 340 nm) (50 μM, DARK, 11.5 min): 0.1417 | A(λ = 340 nm) (50 μM, DARK, 12.0 min): 0.1402 | A(λ = 340 nm) (50 μM, DARK, […]): 0.0305 | tubulin polymerisation inhibition (390 nm irradiation): very strongly inhibited | tubulin polymerisation inhibition (in the dark): not inhibited
